Data on 21 molecules can be found in US12398111B2, “Triazine compounds and pharmaceutical use thereof” (Japan Tobacco Inc., priority 2014, dated 2025).

SMILES strings stand for the structures.

A word on the IC50: it is the concentration that inhibits the measured activity by half.

The subject of assay [1] is prostaglandins in guinea pig secondary aqueous humor. Nature of the assay: Effect on prostaglandin composition in guinea pig aqueous humor (instillation of 0.003% ophthalmic solution, LC/MS/MS). It is filed as in vivo, Hartley male guinea pig. The note with it: 24 hr after instillation of 0.003% ophthalmic solution. The protocol: A test article was dissolved in saline containing 0.5% polysorbate80 (Fluka) and 0.003% ophthalmic solution (pH 7.0-8.0) was prepared. The test article was administered to Hartley male guinea pig by instillation of 20 μL thereof to one eye by using a micropipette. After instillation, the lacrimal part was lightly fixed by gently pressing the lower eyelid for about 15 seconds. The opposite eye was treated in the same manner. To the vehicle group was administered the medium (0.5% polysorbate-containing saline) by a method similar to that for the test article. After 23 hr from the instillation, Mydrin P (registered trade mark) 0.5% ophthalmic solution (Santen Pharmaceutical Co., Ltd., general name: tropicamide/phenylephrine hydrochloride) was dropwisely added by one drop to the both eyes of a guinea pig to cause mydriasis. The guinea pig was anesthetized with Escain (registered trade mark) inhalation anesthetics (Pfizer Inc., general name: isoflurane), the cornea of the both eyes was tapped with a 30G injection needle, and the leaked aqueous humor (primary aqueous humor) was collected. One hour later (24 hr after instillation), the guinea pig was anesthetized again with isoflurane, and the secondary aqueous humor was collected in the same manner. The concentration of prostaglandins in the secondary aqueous humor obtained from each group (4 guinea pigs, 8 eyes) was measured by the LC/MS/MS system (Ultra high performance liquid chromatography: Nexera (registered trademark) manufactured by Shimadzu Corporation, mass spectrometer: […]), and the concentration ratio of each prostaglandin concentration relative to the total of all prostaglandin concentrations was calculated.

For a further assay, the target named is T1, human mPGES-1 (Homo sapiens, UniProt O14684).
T1 construct: made in house; host or cells: FreeStyle CHO-S cells (Chinese hamster ovary), transient transfection with pcDNA3.1(+)/human mPGES-1; microsome fraction used
T1 sequence (O14684 1-152): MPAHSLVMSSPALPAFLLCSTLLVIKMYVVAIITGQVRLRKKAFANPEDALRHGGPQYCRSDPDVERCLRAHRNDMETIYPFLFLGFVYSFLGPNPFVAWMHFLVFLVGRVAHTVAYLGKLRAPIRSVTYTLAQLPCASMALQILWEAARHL
Nature of the assay: Evaluation of human mPGES-1 enzyme inhibitory activity (PGE2 measured by HTRF, microsome fraction of CHO-S cells expressing human mPGES-1). It is filed as biochemical. The following applies: IC50 value; microsome fraction of CHO-S cells expressing human mPGES-1, PGE2 by HTRF. In short, it runs like this: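 Enzyme source: microsomes from CHO-S cells transfected with human mPGES-1 and cultured 48 hr, diluted to 5 μg/mL protein in reduced GSH (12.5 mmol/L KPB solution). Test articles were in 0.1 mol/L potassium phosphate pH 7.4, final DMSO 2% (v/v). PGE2 formed was quantified by HTRF.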
A general note: In TR-FRET formats the signal depends on donor and acceptor labels being close together.

Turning to `CCCOc1ccc(-c2nc(O)nc(-c3cc(CNC(=O)C(C)(C)C(F)(F)F)ccc3Cl)n2)cc1` [Example 1-122, N-{4-chloro-3-[4-hydroxy-6-(4-propoxyphenyl)-1,3,5-triazin-2-yl]benzyl}-3,3,3-trifluoro-2,2-dimethylpropionamide], in assay [1], the “6-keto-PGF1α (%)” value came out at 27.7%, the “PGD2 (%)” value is on record as 23%, the “PGE2 (%)” value was 37.3% and the “PGF2α (%)” value stood at 11.7%. For the same molecule, the “TXB2 (%)” value in assay [1] is reported as 0.2%. The molecule further came in with an IC50 on human mPGES-1 of 1.3 nM.

Consider `CC(C)COc1ccc(-c2nc(O)nc(-c3cc(CNC(=O)C(C)(C)C(F)(F)F)ccc3Cl)n2)cc1` [Example 1-109, N-{4-chloro-3-[4-hydroxy-6-(4-isobutoxyphenyl)-1,3,5-triazin-2-yl]benzyl}-3,3,3-trifluoro-2,2-dimethylpropionamide], for which, in assay [1], the “6-keto-PGF1α (%)” value is listed as 37.5%, the “PGD2 (%)” value came out at 18.9%, the “PGE2 (%)” value came to 29.5% and the “PGF2α (%)” value is 14.1%. For the same molecule, the “TXB2 (%)” value in assay [1] amounted to 0.1%. Half-maximal inhibition against human mPGES-1 (IC50) required 2.5 nM.

For the molecule `Cc1ccc(-c2nc(O)nc(-c3cc(CNC(=O)C(C)(C)C(F)(F)F)ccc3Cl)n2)cc1C` [Example 1-150, N-{4-chloro-3-[4-(3,4-dimethylphenyl)-6-hydroxy-1,3,5-triazin-2-yl]benzyl}-3,3,3-trifluoro-2,2-dimethylpropionamide], in assay [1], the “6-keto-PGF1α (%)” value came to 14%, the “PGD2 (%)” value is recorded as 8%, the “PGE2 (%)” value amounted to 69% and the “PGF2α (%)” value was 8.9%. For the same molecule, in assay [1], the “TXB2 (%)” value is reported as 0.2%. On human mPGES-1, this molecule had an IC50 of 0.4 nM.

Regarding `CO[C@](C)(C(=O)NCc1ccc(Cl)c(-c2nc(O)nc(-c3ccc(Cl)c(C)c3)n2)c1)C(F)(F)F` [Example 1-136, (R)—N-{4-chloro-3-[4-(4-chloro-3-methylphenyl)-6-hydroxy-1,3,5-triazin-2-yl]benzyl}-3,3,3-trifluoro-2-methoxy-2-methylpropionamide], in assay [1], the “6-keto-PGF1α (%)” value is given as 17.3%, the “PGD2 (%)” value is on record as 7.4%, the “PGE2 (%)” value is given as 66.7% and the “PGF2α (%)” value amounted to 7.9%. In addition, the “TXB2 (%)” value in assay [1] was found to be 0.7%. At human mPGES-1, this molecule gave an IC50 of 0.5 nM.

Regarding `Cc1ccc(-c2nc(O)nc(-c3cc(CNC(=O)C(C)(C)C(F)(F)F)ccc3Cl)n2)cc1Cl` [Example 1-129, N-{4-chloro-3-[4-(3-chloro-4-methylphenyl)-6-hydroxy-1,3,5-triazin-2-yl]benzyl}-3,3,3-trifluoro-2,2-dimethylpropionamide], in assay [1], the “6-keto-PGF1α (%)” value amounted to 18.1%, the “PGD2 (%)” value is listed as 9.2%, the “PGE2 (%)” value stood at 62.5% and the “PGF2α (%)” value was 10.2%. In addition, the “TXB2 (%)” value in assay [1] is listed as 0%. The molecule further had a 50% inhibitory concentration (IC50) against human mPGES-1 of 0.6 nM.

In the case of `CC(C)Cc1ccc(-c2nc(O)nc(-c3cc(CNC(=O)C(C)(C)C)ccc3Cl)n2)cc1` [Example 1-51, N-{4-chloro-3-[4-(4-isobutylphenyl)-6-hydroxy-1,3,5-triazin-2-yl]benzyl}-2,2-dimethylpropionamide], in assay [1], the “6-keto-PGF1α (%)” value was determined as 21.7%, the “PGD2 (%)” value is 13.2%, the “PGE2 (%)” value is 50.7% and the “PGF2α (%)” value is 14%. The “TXB2 (%)” value in assay [1] is recorded as 0.4%. In addition, at human mPGES-1, 1 nM corresponded to half-maximal inhibition (IC50).

With `CC(C)c1ccc(-c2nc(O)nc(-c3cc(CNC(=O)C(C)(C)C(F)(F)F)ccc3Cl)n2)cc1` [Example 1-98, N-{4-chloro-3-[4-hydroxy-6-(4-isopropylphenyl)-1,3,5-triazin-2-yl]benzyl}-3,3,3-trifluoro-2,2-dimethylpropionamide], in assay [1], the “6-keto-PGF1α (%)” value was 31.2%, the “PGD2 (%)” value came to 16.3%, the “PGE2 (%)” value turned out to be 38% and the “PGF2α (%)” value came to 14.2%. For the same molecule, the “TXB2 (%)” value in assay [1] came to 0.3%. The same molecule returned an IC50 on human mPGES-1 of 0.9 nM.

As to `CCCOc1ccc(-c2nc(O)nc(-c3cc(CNC(=O)[C@@](C)(OC)C(F)(F)F)ccc3Cl)n2)cc1` [Example 1-137, (R)—N-{4-chloro-3-[4-hydroxy-6-(4-propoxyphenyl)-1,3,5-triazin-2-yl]benzyl}-3,3,3-trifluoro-2-methoxy-2-methylpropionamide], in assay [1], the “6-keto-PGF1α (%)” value is given as 24.8%, the “PGD2 (%)” value was 14.1%, the “PGE2 (%)” value was 49.5% and the “PGF2α (%)” value is reported as 11.3%. Also, in assay [1], the “TXB2 (%)” value was found to be 0.3%. Besides, the IC50 at human mPGES-1 turned out to be 0.5 nM.

In the case of `CCCCOc1ccc(-c2nc(O)nc(-c3cc(CNC(=O)C(C)(C)C(F)(F)F)ccc3Cl)n2)cc1` [Example 1-131, N-{3-[4-(4-butoxyphenyl)-6-hydroxy-1,3,5-triazin-2-yl]-4-chlorobenzyl}-3,3,3-trifluoro-2,2-dimethylpropionamide], in assay [1], the “6-keto-PGF1α (%)” value was 27.9%, the “PGD2 (%)” value worked out at 18.8%, the “PGE2 (%)” value amounted to 42.9% and the “PGF2α (%)” value turned out to be 9.8%. For the same molecule, the “TXB2 (%)” value in assay [1] is given as 0.6%. The same molecule yielded an IC50 against human mPGES-1 of 0.9 nM.

Consider `CC(C)c1cc(-c2nc(O)nc(-c3cc(CNC(=O)C(C)(C)C(F)(F)F)ccc3Cl)n2)ccc1C(F)(F)F` [Example 1-130, N-{4-chloro-3-[4-hydroxy-6-(3-isopropyl-4-trifluoromethylphenyl)-1,3,5-triazin-2-yl]benzyl}-3,3,3-trifluoro-2,2-dimethylpropionamide], for which, in assay [1], the “6-keto-PGF1α (%)” value turned out to be 11.2%, the “PGD2 (%)” value stood at 6.2%, the “PGE2 (%)” value is 73.6% and the “PGF2α (%)” value was 8%. Further, the “TXB2 (%)” value in assay [1] was 1%. For the same molecule, on human mPGES-1, the midpoint of inhibition, the IC50, lay at 9 nM.

For `CC(C)COc1ccc(-c2nc(O)nc(-c3cc(CNC(=O)C4(C(F)(F)F)CC4)ccc3Cl)n2)cc1` [Example 1-178, 1-trifluoromethylcyclopropanecarboxylic acid 4-chloro-3-[4-hydroxy-6-(4-isobutoxyphenyl)-1,3,5-triazin-2-yl]benzylamide], in assay [1], the “6-keto-PGF1α (%)” value is 36.6%, the “PGD2 (%)” value is on record as 20.1%, the “PGE2 (%)” value came to 30% and the “PGF2α (%)” value is given as 13%. Also, the “TXB2 (%)” value in assay [1] was 0.3%. The molecule also had an IC50 on human mPGES-1 of 1.4 nM.

Regarding `C[C@@H](Oc1ccc(-c2nc(O)nc(-c3cc(CNC(=O)C(C)(C)C(F)(F)F)ccc3Cl)n2)cc1)C1CC1` [Example 1-185, N-(4-chloro-3-{4-[4-((R)-1-cyclopropylethoxy)phenyl]-6-hydroxy-1,3,5-triazin-2-yl}benzyl)-3,3,3-trifluoro-2,2-dimethylpropionamide], in assay [1], the “6-keto-PGF1α (%)” value turned out to be 25.4%, the “PGD2 (%)” value amounted to 12.1%, the “PGE2 (%)” value is given as 50% and the “PGF2α (%)” value came to 11%. In addition, the “TXB2 (%)” value in assay [1] was 1.6%. For the same molecule, at human mPGES-1, 1.7 nM corresponded to half-maximal inhibition (IC50).

For the molecule `CC(C(=O)NCc1ccc(Cl)c(-c2nc(O)nc(-c3ccc(OCC4CC4)cc3)n2)c1)(C(F)(F)F)C(F)(F)F` [Example 1-169, N-{4-chloro-3-[4-(4-cyclopropylmethoxyphenyl)-6-hydroxy-1,3,5-triazin-2-yl]benzyl}-3,3,3-trifluoro-2-methyl-2-trifluoromethylpropionamide], in assay [1], the “6-keto-PGF1α (%)” value was found to be 40.3%, the “PGD2 (%)” value was 17%, the “PGE2 (%)” value came to 28.7% and the “PGF2α (%)” value was 13.5%. Moreover, in assay [1], the “TXB2 (%)” value is recorded as 0.5%. At human mPGES-1, this molecule gave a half-inhibitory concentration (IC50) of 2 nM.

The molecule `Oc1nc(-c2ccc(C(F)(F)F)cc2)nc(-c2cc(OC(F)(F)F)ccc2Cl)n1` [Example 1-5] gave a 50% inhibitory concentration (IC50) against human mPGES-1 of 672 nM.

The molecule `COc1ccc(-c2nc(O)nc(-c3cc(CNC(=O)C(C)(C)C(F)(F)F)ccc3Cl)n2)cc1` [Example 1-139] had an IC50 against human mPGES-1 of 0.6 nM. Compared with the last molecule, the IC50 is about 1100-fold lower.

Molecule `Cc1cccc(C)c1-c1nc(O)nc(-c2ccc(OCC3CCC3)cc2)n1` [Example 2-51] had an IC50 against human mPGES-1 of 90 nM.

On human mPGES-1, `CO[C@](C)(C(=O)N(C)Cc1ccc(Cl)c(-c2nc(O)nc(-c3ccccc3)n2)c1)C(F)(F)F` [Example 1-242] showed an IC50 of 82 nM. This IC50 and that of the molecule before are within 1.5-fold of each other.

Turning to `O=C(NCc1ccc(Cl)c(-c2nc(O)nc(-c3ccccc3)n2)c1)C1(CO)CCCC1` [Example 1-254], the half-maximal inhibitory concentration (IC50) against human mPGES-1 amounted to 30 nM.

With `Cc1ccc(Cl)c(-c2nc(O)nc(-c3ccc(C(F)(F)F)cc3)n2)c1` [Example 1-4], on human mPGES-1, half-maximal inhibition (IC50) required 25 nM. The IC50 values of the last two molecules are within 1.5-fold of each other.

In the case of `Cc1ccc(COc2cccc(C(F)(F)F)c2-c2nc(O)nc(-c3ccc(C#Cc4ccccc4)cc3)n2)nc1` [Example 2-114], it took 4.9 nM to reach half-maximal inhibition against human mPGES-1 (IC50).

At human mPGES-1, `Cc1cccc(C)c1-c1nc(O)nc(-c2cccc(C(F)(F)F)c2)n1` [Example 2-28] came in with an IC50 of 3700 nM.
